Reference: patent publication US20240316196A1, “METHODS AND COMPOSITIONS FOR DIFFERENTIATION OF PLURIPOTENT STEM CELLS AND DERIVED NATURAL KILLER CELLS” (NUWACELL BIOTECHNOLOGIES CO., LTD., priority 2022, published 2024)

Columns and labels:
iNK cells = test: Stage 3 expansion and maturation of immature iNK cells co-cultured with feeder cells; assay type: cell-based, human; settings: IL-18 (10-50 ng/mL) with IL-2 (100 IU/mL) in Stage 3 vs IL-2 only, Day 14 of co-culture (FIG. 13B)
Description: (§1) hiPSCs were prepared as described in CN108373998B. On Day −1, Embryoid body (EB) formation (Stage 1-1) was carried out by placing individualized hiPSCs in E8 medium containing 10 μM Blebbistatin in T25 flasks on a bellydancer and culture overnight. On Day 0, lateral mesoderm differentiation (Stage 1-2) was initiated by changing the medium to a Stage 1-2 differentiation medium comprising IF-4 basal medium and supplemented with BMP4 (25 ng/mL), VEGF (15 ng/mL), bFGF (0.5 ng/mL) and CHIR99021 (4 μM) for 2 days. On Day 2, lateral mesoderm differentiation (Stage 1-3) continued for 1 day in a Stage 1-3 differentiation medium comprising IF-4 basal medium and supplemented with BMP4 (25 ng/mL), VEGF (15 ng/mL) and bFGF (0.5 ng/mL) and CHIR99021 (1 μM). On Day 3, HE specification (Stage 1-4) was initiated by adding a Stage 1-4 differentiation medium comprising IF-4 basal medium and supplemented with VEGF (15 ng/mL), bFGF (5 ng/mL), XAV939 (5 μM) for 1 day. […] On Day 14 of co-culture, iNK cells were collected and stained with CD56-PE antibody (BD, #555516), and the percentage of CD56+ cells was analyzed by flow cytometry.
hiPSCs were prepared as described in CN108373998B. […] D-1 and DO cells were analyzed by Microscopy. […] At the end of Stage 1-4, cells were analyzed by Microscopy and FACS. […] At the end of Stage 1-5, cells were analyzed by Microscopy and FACS. […]

K562 cells = test: Cytotoxicity of Stage 3 iNK cells towards K562 cells (CFSE/7AAD assay); assay type: cell-based; settings: added to Stage 3 medium (IL-10 20 ng/mL, IL-18 50 ng/mL); 4 hr co-culture, E:T 3:1 (FIG. 13A)
Description: as §1, with “ng/mL), VEGF (50 ng/mL) and” for “ng/mL), VEGF (15 ng/mL) and”, “On Day 11 of co-culture,” for “On Day 14 of co-culture,”, “(BD, #555516), the percentage” for “(BD, #555516), and the percentage”, “flow cytometry. The cytotoxicity of Stage 3 iNK cells towards K562 cells was detected by CFSE/7AAD assay after 4 hr co-culture at E:T of 3:1.” for “flow cytometry.”

## IL-18: interleukin added to Stage 3 expansion and maturation medium
iNK cells
  expansion fold of iNK cells: improve the expansion fold
K562 cells
  cytotoxicity of iNK cells towards K562 cells: significantly improve
